Measurements as given in US6274715A, “Tricyclic erythromycin derivatives” (priority 1997, dated 2001).
Converted amounts (≈) assume the structure as drawn. Where two headings read alike, the source gives them in different places.

Columns and labels:
Format in all cases: cell-based
[1] = test system: PSEUDOMONAS AERUGINOSA K799/61; assay: In vitro antibacterial activity, MIC, BHI agar dilution
ESCHERICHIA COLI DC-2 = assay: as above
STR[…] 508 = assay: as above
Method in brief: (§1)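 MIC was read visually as the lowest drug level with no growth, a slight haze or sparsely isolated colonies relative to a compound-free growth control. Organisms were spotted at 1:100 dilution (1:10 for slow-growing strains) onto Brain Heart Infusion agar containing serial compound dilutions and incubated 20 to 24 hours at 35-37° C.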

M[…] ATCC 4698 = assay: as above
Method in brief: as §1

EN[…] ATCC 8043 = assay: as above; details: E. faecium ATCC 8043, unit assumed
Method in brief: as §1

M[…] ATCC 9341 = assay: as above
Method in brief: as §1

PSEUDOMONAS CEPACIA 296I = assay: as above; details: P. cepacia 296I, unit assumed
[2] = test system: KLEBSIELLA PNEUMONIAE ATCC 8045; assay: as above
[3] = test system: STAPHYLOCOCCUS AUREUS A-5278; assay: as above; details: S. aureus A-5278, unit assumed
ESCHERICHIA COLI JUHL = details: E. coli JUHL; BHI agar; unit assumed
[4] = test system: PSEUDOMONAS AERUGINOSA K799/WT; assay: In vitro antibacterial activity, MIC, BHI agar dilution; details: P. aeruginosa K799/WT
[5] = test system: PSEUDOMONAS AERUGINOSA BMH10; assay: as above
[6] = test system: PSEUDOMONAS AERUGINOSA DPHD-2862; assay: as above; details: P. aeruginosa DPHD-2862, unit assumed
[7] = test system: STAPHYLOCOCCUS AUREUS CMX 642A; assay: as above; details: S. aureus CMX 642A
[8] = test system: STAPHYLOCOCCUS AUREUS A5177; assay: as above; details: S. aureus A5177, unit assumed
ESCHERICHIA COLI KNK 437 = details: E. coli KNK 437, BHI agar, unit assumed
[9] = test system: ACINETOBACTER CALCOACETICUS CMX 669; assay: In vitro antibacterial activity, MIC, BHI agar dilution; details: A. calcoaceticus CMX 669, unit assumed
[10] = test system: STAPHYLOCOCCUS AUREUS CMX 553; assay: as above
[11] = test system: ENTEROBACTER AEROGENES ATCC 13048; assay: as above
[12] = test system: STREPTOCOCCUS BOVIS A-5169; assay: as above
ESCHERICHIA COLI H560 = assay: as above; details: E. coli H560, unit assumed
CANDIDA ALBICANS CCH 442 = assay: as above; details: C. albicans CCH 442, unit assumed
[13] = test system: STAPHYLOCOCCUS AUREUS 1775; assay: as above; details: S. aureus 1775, unit assumed
[14] = test system: PSEUDOMONAS AERUGINOSA 5007; assay: as above
[15] = test system: STREPTOCOCCUS PYOGENES PIU 2548; assay: as above
[16] = test system: PROVIDENCIA STUARTII CMX 640; details: P. stuartii CMX 640; BHI agar; unit assumed
[17] = test system: STAPHYLOCOCCUS AUREUS NCTC10649M; assay: In vitro antibacterial activity, MIC, BHI agar dilution; details: S. aureus NCTC10649M
[18] = test system: PSEUDOMONAS AERUGINOSA DPHD-5263; assay: as above; details: P. aeruginosa DPHD-5263, unit assumed
[19] = test system: STREPTOCOCCUS PYOGENES 930; assay: as above; details: S. pyogenes 930, unit assumed
[20] = test system: STAPHYLOCOCCUS AUREUS ATCC 6538P; assay: as above; details: S. aureus ATCC 6538P, 35-37° C., 20 to 24 hours, unit assumed
ESCHERICHIA COLI SS = assay: as above; details: E. coli SS, unit assumed
[21] = test system: STREPTOCOCCUS PYOGENES EES61; assay: as above; details: S. pyogenes EES61, unit assumed
[22] = test system: STAPHYLOCOCCUS EPIDERMIDIS 3519; details: S. epidermidis 3519; BHI agar; unit assumed
[23] = test system: MYCOBACTERIUM SMEGMATIS ATCC 114; assay: In vitro antibacterial activity, MIC, BHI agar dilution; details: M. smegmatis ATCC 114, unit assumed
[24] = P. aeruginosa K799/61, unit assumed
[25] = M. luteus ATCC 4698, unit assumed
[26] = M. luteus ATCC 9341, unit assumed
[27] = K. pneumoniae ATCC 8045, unit assumed
[28] = P. aeruginosa BMH10, unit assumed
[29] = S. aureus CMX 553, unit assumed
[30] = E. aerogenes ATCC 13048, unit assumed
[31] = P. aeruginosa 5007, unit assumed
[32] = S. pyogenes PIU 2548, unit assumed

Structure (SMILES)	MIC (EN[…] ATCC 8043)	MIC (PSEUDOMONAS CEPACIA 296I)	MIC [3]	MIC (ESCHERICHIA COLI JUHL)	MIC [6]	MIC [8]	MIC [9]	MIC (ESCHERICHIA COLI H560)	MIC (CANDIDA ALBICANS CCH 442)	MIC [13]	MIC [16]	MIC [18]	MIC [19]	MIC [20]	MIC (ESCHERICHIA COLI SS)	MIC [21]	MIC [1, 24]	MIC (ESCHERICHIA COLI DC-2; E. coli DC-2, unit assumed)	MIC (M[…] ATCC 4698; [25])	MIC (M[…] ATCC 9341; [26])	other results
CC[C@H]1OC(=O)[C@H](C)C(=O)[C@H](C)[C@@H](O[C@@H]2O[C@H](C)C[C@H](N(C)C)[C@H]2O)[C@](C)(OC)C[C@@H](C)C2=NC3CN(CCCc4ccccc4)CC3N3C(=O)O[C@@]1(C)[C@H]3[C@H]2C (stereo partly drawn) [Example 111]	0.1 mg/L (≈ 0.125 µM)	25 mg/L (≈ 31.4 µM)	> 100 mg/L	100 mg/L (≈ 125 µM)	> 100 mg/L	0.2 mg/L (≈ 0.251 µM)	> 100 mg/L	50 mg/L (≈ 62.7 µM)	0.39 mg/L (≈ 0.489 µM)	> 100 mg/L	> 100 mg/L	> 100 mg/L	50 mg/L (≈ 62.7 µM)	0.2 mg/L (≈ 0.251 µM)	0.39 mg/L (≈ 0.489 µM)	0.02 mg/L (≈ 0.0251 µM)	–	–	–	–	MIC ([1]; P. aeruginosa K799/61, listed as Ex 111, unit assumed): 50 mg/L (≈ 62.7 µM); MIC (ESCHERICHIA COLI DC-2; E. coli DC-2, listed as Ex 111, unit assumed): 100 mg/L (≈ 125 µM); MIC (STR[…] 508; S. agalactiae CMX 508, listed as Ex 111, unit assumed): 0.05 mg/L (≈ 0.0627 µM); MIC (M[…] ATCC 4698; M. luteus ATCC 4698, listed as Ex 111, unit assumed): 0.39 mg/L (≈ 0.489 µM); MIC (M[…] ATCC 9341; M. luteus ATCC 9341, listed as Ex 111, unit assumed): 0.05 mg/L (≈ 0.0627 µM); MIC ([2]; K. pneumoniae ATCC 8045, listed as Ex 111, unit assumed): > 100 mg/L; MIC ([4]; listed as Ex 111, unit assumed): 1.56 mg/L (≈ 1.96 µM); MIC ([5]; P. aeruginosa BMH10, listed as Ex 111, unit assumed): > 100 mg/L; MIC ([7]; listed as Ex 111, unit assumed): 0.39 mg/L (≈ 0.489 µM); MIC (ESCHERICHIA COLI KNK 437; listed as Ex 111): > 100 mg/L; MIC ([10]; S. aureus CMX 553, listed as Ex 111, unit assumed): 0.2 mg/L (≈ 0.251 µM); MIC ([11]; E. aerogenes ATCC 13048, listed as Ex 111, unit assumed): > 100 mg/L; MIC ([12]; S. bovis A-5169, listed as Ex 111, unit assumed): 0.01 mg/L (≈ 0.0125 µM); MIC ([14]; P. aeruginosa 5007, listed as Ex 111, unit assumed): 100 mg/L (≈ 125 µM); MIC ([15]; S. pyogenes PIU 2548, listed as Ex 111, unit assumed): 0.39 mg/L (≈ 0.489 µM); MIC ([17]; listed as Ex 111, unit assumed): 0.2 mg/L (≈ 0.251 µM)
C#CCN1CC2N=C3[C@H](C)C[C@@](C)(OC)[C@H](O[C@@H]4O[C@H](C)C[C@H](N(C)C)[C@H]4O)[C@@H](C)C(=O)[C@@H](C)C(=O)O[C@H](CC)[C@@]4(C)OC(=O)N(C2C1)[C@@H]4[C@H]3C (stereo partly drawn) [Example 117]	0.2 mg/L (≈ 0.279 µM)	> 100 mg/L	> 100 mg/L	> 100 mg/L	> 100 mg/L	0.78 mg/L (≈ 1.09 µM)	> 100 mg/L	50 mg/L (≈ 69.7 µM)	> 100 mg/L	> 100 mg/L	> 100 mg/L	> 100 mg/L	> 100 mg/L	0.78 mg/L (≈ 1.09 µM)	–	–	3.1 mg/L (≈ 4.32 µM)	> 100 mg/L	0.39 mg/L (≈ 0.544 µM)	0.2 mg/L (≈ 0.279 µM)	MIC (STR[…] 508; S. agalactiae CMX 508, unit assumed): 0.05 mg/L (≈ 0.0697 µM); MIC [2, 27]: > 100 mg/L; MIC [22]: 1.56 mg/L (≈ 2.18 µM); MIC ([4]; unit assumed): > 100 mg/L; MIC [5, 28]: > 100 mg/L; MIC ([7]; unit assumed): 0.78 mg/L (≈ 1.09 µM); MIC (ESCHERICHIA COLI KNK 437): > 100 mg/L; MIC [10, 29]: 0.78 mg/L (≈ 1.09 µM); MIC [11, 30]: > 100 mg/L; MIC ([12]; S. bovis A-5169, unit assumed): 0.05 mg/L (≈ 0.0697 µM); MIC [14, 31]: > 100 mg/L; MIC [15, 32]: 0.78 mg/L (≈ 1.09 µM); MIC [23]: 3.1 mg/L (≈ 4.32 µM); MIC ([17]; unit assumed): 0.78 mg/L (≈ 1.09 µM)
CCC1OC(=O)C(C)C(=O)C(C)C(OC2OC(C)CC(N(C)C)C2O)C(C)(OC)CC(C)C2=NCC(CSc3ccccc3)(CN(C)Cc3ccccc3)N3C(=O)OC1(C)C3C2C (stereo not drawn) [Example 133]	0.1 mg/L (≈ 0.112 µM)	> 100 mg/L	25 mg/L (≈ 28 µM)	> 100 mg/L	> 100 mg/L	0.78 mg/L (≈ 0.873 µM)	> 100 mg/L	> 100 mg/L	50 mg/L (≈ 56 µM)	25 mg/L (≈ 28 µM)	> 100 mg/L	> 100 mg/L	6.2 mg/L (≈ 6.94 µM)	0.78 mg/L (≈ 0.873 µM)	12.5 mg/L (≈ 14 µM)	0.02 mg/L (≈ 0.0224 µM)	12.5 mg/L (≈ 14 µM)	> 100 mg/L	1.56 mg/L (≈ 1.75 µM)	0.2 mg/L (≈ 0.224 µM)	MIC [2, 27]: > 100 mg/L; MIC [22]: 1.56 mg/L (≈ 1.75 µM); MIC ([4]; unit assumed): > 100 mg/L; MIC [5, 28]: > 100 mg/L; MIC ([7]; unit assumed): 1.56 mg/L (≈ 1.75 µM); MIC (ESCHERICHIA COLI KNK 437): > 100 mg/L; MIC [10, 29]: 1.56 mg/L (≈ 1.75 µM); MIC [11, 30]: > 100 mg/L; MIC [14, 31]: > 100 mg/L; MIC [15, 32]: 1.56 mg/L (≈ 1.75 µM); MIC [23]: 0.78 mg/L (≈ 0.873 µM); MIC ([17]; unit assumed): 1.56 mg/L (≈ 1.75 µM)
